Laboratory results published in patent US12565494B2, “Inhibitors of human respiratory syncytial virus and metapneumovirus” (priority 2022, dated 2026).
Like-named read-outs stand apart in the source and are kept apart here.

Columns and labels:
RSV-A2-GFP virus = assay: microbe, parasite or virus in culture; format: cell-based, Human Respiratory Syncytial Virus; details: Calu-1 cells, RSV-A2-GFP MOI=1.2, 96 hrs, GFP-expressing cells counted
In short: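 Assay-ready frozen Calu-1 cells (20,000 cells/mL) were infected with RSV-A2-GFP at MOI 1.2 in DMEM with 2% FBS and exposed to a 10-point 3-fold compound dilution for 96 h at 37 °C. GFP-positive cells were counted by imaging, with same-well CellTiter-Glo for cytotoxicity. IC50 and CC50 came from 4-parameter logistic fits.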

hMPV-GFP virus = assay: microbe, parasite or virus in culture; format: cell-based, Human Metapneumovirus; details: VERO cells, hMPV-GFP MOI=1.25, 48 hrs, GFP-expressing cells counted
In short: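 VERO cells infected with GFP-expressing hMPV at MOI 1.25 and exposed to compound in 10-point 3-fold dilutions (typical final 40,300–2 nM) for 48 h at 37 °C. GFP-positive cells counted by imaging; same-well CellTiter-Glo for cytotoxicity. IC50 and CC50 from 4-parameter logistic fits.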

[1] = Table I Summary of Activities for RSV, read-out: RSV EC50
[2] = Table II Summary of Activities for hMPV, read-out: RSV EC50
[3] = human respiratory syncytial virus, Calu-1, 96 h, read-out: RSV EC50, Table I Summary of Activities for RSV
[4] = Vero, 48 h, read-out: RSV EC50, Table II Summary of Activities for hMPV
[5] = read-out: RSV EC50, Table I Summary of Activities for RSV
[6] = read-out: RSV EC50, Table II Summary of Activities for hMPV

## Cc1cnc(-c2cc(C(=O)N3C[C@@H]4[C@H](C3)[C@H]4Oc3cc(C(C)(C)N)cc(-c4ccc(F)cc4)n3)n(C)n2)o1 [Example 22, ((1R,5S,6s)-6-((4-(2-aminopropan-2-yl)-6-(4-fluorophenyl)pyridin-2-yl)oxy)-3-azabicyclo[3.1.0]hexan-3-yl)(1-methyl-3-(5-methyloxazol-2-yl)-1H-pyrazol-5-yl)methanone]
RSV-A2-GFP virus; [1]
  EC50: < 10 nM
hMPV-GFP virus; [2]
  EC50: 10 to 100 nM

## Cn1nc(-c2ncco2)cc1C(=O)N1C[C@@H]2[C@H]1C[C@H]2Oc1cc(C(C)(C)N)cc(-c2ccc(F)cc2)n1 (single isomer, unassigned; enantiomer 2) [Example 2]
RSV-A2-GFP virus; [3]
  EC50: 10 to 100 nM
hMPV-GFP virus; [4]
  EC50: > 100 nM

## Cc1nn(-c2cscn2)cc1C(=O)N1C[C@@H]2[C@H](C1)[C@H]2Oc1cc(C(C)(C)N)cc(-c2ccc(F)cc2)n1 [Example 28, ((1R,5S,6s)-6-((4-(2-aminopropan-2-yl)-6-(4-fluorophenyl)pyridin-2-yl)oxy)-3-azabicyclo[3.1.0]hexan-3-yl)(3-methyl-1-(thiazol-4-yl)-1H-pyrazol-4-yl)methanone]
RSV-A2-GFP virus; [1]
  EC50: < 10 nM
hMPV-GFP virus; [2]
  EC50: > 100 nM

## CC(C)(N)c1cc(O[C@H]2[C@@H]3CN(C(=O)c4sc(-c5cscn5)nc4C4CC4)C[C@@H]32)nc(-c2ccc(F)cc2F)c1 [Example 34, ((1R,5S,6s)-6-((4-(2-aminopropan-2-yl)-6-(2,4-difluorophenyl)pyridin-2-yl)oxy)-3-azabicyclo[3.1.0]hexan-3-yl)(4-cyclopropyl-[2,4′-bithiazol]-5-yl)methanone]
RSV-A2-GFP virus; [1]
  EC50: < 10 nM
hMPV-GFP virus; [2]
  EC50: 10 to 100 nM

## Cc1cnc(-c2nc(C)c(C(=O)N3C[C@@H]4[C@H](C3)[C@H]4Oc3cc(C(C)(C)N)cc(-c4ccc(F)cc4)n3)s2)o1 [Example 4, ((1R,5S,6s)-6-((4-(2-aminopropan-2-yl)-6-(4-fluorophenyl)pyridin-2-yl)oxy)-3-azabicyclo[3.1.0]hexan-3-yl)(4-methyl-2-(5-methyloxazol-2-yl)thiazol-5-yl)methanone]
RSV-A2-GFP virus; [1]
  EC50: < 10 nM
hMPV-GFP virus; [2]
  EC50: 10 to 100 nM

## Cn1nc(-c2cscn2)cc1C(=O)N1C[C@@H]2[C@H](C1)[C@H]2Oc1cc(C2(C)CCN2)cc(-c2ccc(F)cc2)n1 (single isomer, unassigned; enantiomer 2) [Example 55B]
RSV-A2-GFP virus; [5]
  EC50: < 10 nM
hMPV-GFP virus; [6]
  EC50: > 100 nM

## Cc1nc(-c2ncco2)sc1C(=O)N1C[C@@H]2[C@H](C1)[C@H]2Oc1cc(C(C)(C)N)cc(-c2ccc(F)cc2F)n1 [Example 31, ((1R,5S,6s)-6-((4-(2-aminopropan-2-yl)-6-(2,4-difluorophenyl)pyridin-2-yl)oxy)-3-azabicyclo[3.1.0]hexan-3-yl)(4-methyl-2-(oxazol-2-yl)thiazol-5-yl)]
RSV-A2-GFP virus; [3]
  EC50: < 10 nM
hMPV-GFP virus; [4]
  EC50: 10 to 100 nM

## Cn1nc(-c2nccs2)cc1C(=O)N1C[C@@H]2[C@H](C1)[C@H]2Oc1cc(C(C)(C)N)cc(-c2ccc(F)cc2)n1 [Example 23, ((1R,5S,6s)-6-((4-(2-aminopropan-2-yl)-6-(4-fluorophenyl)pyridin-2-yl)oxy)-3-azabicyclo[3.1.0]hexan-3-yl)(1-methyl-3-(thiazol-2-yl)-1H-pyrazol-5-yl)methanone]
RSV-A2-GFP virus; [1]
  EC50: < 10 nM
hMPV-GFP virus; [2]
  EC50: > 100 nM

## Cn1nc(-c2cscn2)cc1C(=O)N1C[C@@H]2[C@H](C1)[C@H]2Oc1cc(C2(C)CNC2=O)cc(-c2ccc(F)cc2)n1 (single isomer, unassigned; ent-3) [Example 50B]
RSV-A2-GFP virus; [5]
  EC50: < 10 nM
hMPV-GFP virus; [6]
  EC50: > 100 nM

## Cn1nc(-c2ncco2)cc1C(=O)N1C[C@@H]2[C@H](C1)[C@H]2Oc1cc(C(C)(C)N)cc(-c2ccc3c(c2)CC3(F)F)n1 [Example 35, ((1R,5S,6s)-6-((4-(2-aminopropan-2-yl)-6-(7,7-difluorobicyclo[4.2.0]octa-1(6),2,4-trien-3-yl)pyridin-2-yl)oxy)-3-azabicyclo[3.1.0]hexan-3-yl)(1-methyl-3-(oxazol-2-yl)-1H-pyrazol-5-yl)methanone]
RSV-A2-GFP virus; [1]
  EC50: < 10 nM
hMPV-GFP virus; [2]
  EC50: > 100 nM

## Cn1nc(-c2cscn2)cc1C(=O)N1C[C@@H]2[C@H](C1)[C@H]2Oc1cc(C2(C)CCCN2)cc(-c2ccc(F)cc2)n1 (single isomer, unassigned; enantiomer 1) [Example 56A]
RSV-A2-GFP virus; [3]
  EC50: < 10 nM
hMPV-GFP virus; [4]
  EC50: > 100 nM

## Cn1nc(-c2ncco2)cc1C(=O)N1C[C@H]2[C@H](Oc3cc(C(C)(C)N)cc(-c4ccc(F)cc4)n3)[C@@]2(C)C1 (single isomer, unassigned; enantiomer 2) [Example 44B]
RSV-A2-GFP virus; [5]
  EC50: < 10 nM
hMPV-GFP virus; [6]
  EC50: 10 to 100 nM

## Cc1nc(-c2ncc[nH]2)sc1C(=O)N1C[C@@H]2[C@H](C1)[C@H]2Oc1cc(C(C)(C)N)cc(-c2ccc(F)cc2)n1 [Example 9, (2-(1H-imidazol-2-yl)-4-methylthiazol-5-yl)((1R,5S,6s)-6-((4-(2-aminopropan-2-yl)-6-(4-fluorophenyl)pyridin-2-yl)oxy)-3-azabicyclo[3.1.0]hexan-3-yl)methanone]
RSV-A2-GFP virus; [1]
  EC50: < 10 nM
hMPV-GFP virus; [2]
  EC50: > 100 nM

## Cn1nc(-c2cscn2)cc1C(=O)N1C[C@@H]2[C@H](C1)[C@H]2Oc1cc(C(C)(N)C(N)=O)cc(-c2ccc(F)cc2)n1 (single isomer, unassigned; ent-2) [Example 49B]
RSV-A2-GFP virus; [5]
  EC50: < 10 nM
hMPV-GFP virus; [6]
  EC50: > 100 nM

## Cn1nc(-c2cscn2)cc1C(=O)N1C[C@@H]2[C@H](C1)[C@H]2Oc1cc(C(C)(C)N)cc(C2CCC(C)(C)CC2O)n1 (single isomer, unassigned; enantiomer 4) [Example 66D]
RSV-A2-GFP virus; [5]
  EC50: 10 to 100 nM
hMPV-GFP virus; [6]
  EC50: > 100 nM

## Cn1nc(-c2ncco2)cc1C(=O)N1C[C@@H]2[C@H](C1)[C@H]2Oc1cc(C(C)(C)N)cc(N2CCC(C(F)(F)F)CC2)n1 [Example 40, ((1R,5S,6s)-6-((4-(2-aminopropan-2-yl)-6-(4-(trifluoromethyl)piperidin-1-yl)pyridin-2-yl)oxy)-3-azabicyclo[3.1.0]hexan-3-yl)(1-methyl-3-(oxazol-2-yl)-1H-pyrazol-5-yl)methanone]
RSV-A2-GFP virus; [1]
  EC50: < 10 nM
hMPV-GFP virus; [2]
  EC50: > 100 nM

## Cn1nc(-c2cscn2)cc1C(=O)N1C[C@@H]2[C@H](C1)[C@H]2Oc1cc(C(C)(C)CN)cc(-c2ccc(F)cc2)n1 [Example 54, ((1R,5S,6s)-6-((4-(1-amino-2-methylpropan-2-yl)-6-(4-fluorophenyl)pyridin-2-yl)oxy)-3-azabicyclo[3.1.0]hexan-3-yl)(1-methyl-3-(thiazol-4-yl)-1H-pyrazol-5-yl)methanone]
RSV-A2-GFP virus; [3]
  EC50: < 10 nM
hMPV-GFP virus; [4]
  EC50: 10 to 100 nM

## Cc1nc(-c2nccs2)sc1C(=O)N1C[C@@H]2[C@H](C1)[C@H]2Oc1cc(C(C)(C)N)cc(-c2ccc(F)cc2)n1 [Example 6, ((1R,5S,6s)-6-((4-(2-aminopropan-2-yl)-6-(4-fluorophenyl)pyridin-2-yl)oxy)-3-azabicyclo[3.1.0]hexan-3-yl)(4-methyl-[2,2′-bithiazol]-5-yl)methanone]
RSV-A2-GFP virus; [1]
  EC50: < 10 nM
hMPV-GFP virus; [2]
  EC50: > 100 nM

## CC(O)c1nc(-c2cscn2)sc1C(=O)N1C[C@@H]2[C@H](C1)[C@H]2Oc1cc(C(C)(C)N)cc(-c2ccc(F)cc2)n1 (single isomer, unassigned; enantiomer 2) [Example 16B]
RSV-A2-GFP virus; [5]
  EC50: < 10 nM
hMPV-GFP virus; [6]
  EC50: > 100 nM

## Cn1nc(-c2cscn2)cc1C(=O)N1C[C@H]2[C@H](Oc3cc(C(C)(C)N)cc(-c4ccc(F)cc4)n3)[C@@]2(C)C1 (single isomer, unassigned; enantiomer 2) [Example 43B]
RSV-A2-GFP virus; [3]
  EC50: < 10 nM
hMPV-GFP virus; [4]
  EC50: > 100 nM

## CC(N)c1cc(O[C@H]2[C@@H]3CN(C(=O)c4cc(-c5cscn5)nn4C)C[C@@H]32)nc(-c2ccc(F)cc2)c1 (single isomer, unassigned; enantiomer 1) [Example 61A]
RSV-A2-GFP virus; [3]
  EC50: < 10 nM
hMPV-GFP virus; [4]
  EC50: > 100 nM

## Cn1nc(-n2cccn2)cc1C(=O)N1C[C@@H]2[C@H](C1)[C@H]2Oc1cc(C(C)(C)N)cc(-c2ccc(F)cc2)n1 [Example 67, ((1R,5S,6s)-6-((4-(2-aminopropan-2-yl)-6-(4-fluorophenyl)pyridin-2-yl)oxy)-3-azabicyclo[3.1.0]hexan-3-yl)(1′-methyl-1′H-[1,3′-bipyrazol]-5′-yl)methanone]
RSV-A2-GFP virus; [3]
  EC50: < 10 nM
hMPV-GFP virus; [4]
  EC50: > 100 nM

## Cn1nc(-c2ccon2)cc1C(=O)N1C[C@@H]2[C@H](C1)[C@H]2Oc1cc(C(C)(C)N)cc(N2CCC(C(F)(F)F)CC2)n1 [Example 64, ((1R,5S,6s)-6-((4-(2-aminopropan-2-yl)-6-(4-(trifluoromethyl)piperidin-1-yl)pyridin-2-yl)oxy)-3-azabicyclo[3.1.0]hexan-3-yl)(3-(isoxazol-3-yl)-1-methyl-1H-pyrazol-5-yl)methanone]
RSV-A2-GFP virus; [3]
  EC50: < 10 nM
hMPV-GFP virus; [4]
  EC50: > 100 nM

## Cc1nc(-c2cc(C(=O)N3C[C@@H]4[C@H](C3)[C@H]4Oc3cc(C(C)(C)N)cc(-c4ccc(F)cc4)n3)n(C)n2)cs1 [Example 24, ((1R,5S,6s)-6-((4-(2-aminopropan-2-yl)-6-(4-fluorophenyl)pyridin-2-yl)oxy)-3-azabicyclo[3.1.0]hexan-3-yl)(1-methyl-3-(2-methylthiazol-4-yl)-1H-pyrazol-5-yl)methanone]
RSV-A2-GFP virus; [1]
  EC50: < 10 nM
hMPV-GFP virus; [2]
  EC50: > 100 nM
